The values that follow come from PubChem BioAssay (NCI).

Some test systems named below: HCT-15 colon; KM12 colon; OVCAR-4 ovarian; SN12C renal; NCI-H460 lung; UO-31 renal; DU-145 prostate; T-47D breast.
Assay in all cases: NCI tumour cell line growth inhibition, 48 h

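Growth conditions: 96-well plates. Treatment: test compound, 48 hours, 5 concentrations. Analysis: linear interpolation between bracketing concentrations; unreached endpoints set to highest concentration. The concentration for 50% growth inhibition is given as GI50. TGI denotes the concentration required for complete inhibition of growth.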

Regarding `COc1ccc(N=c2ssc3c(=S)ssc23)cc1`, the TGI is 52.5 µM with HCT-15 colon, > 100 µM in the experiment on KM12 colon, > 100 µM with OVCAR-4 ovarian and > 100 µM with SN12C renal.
For the compound `c1ccc(SC(CCCCC(Sc2ccccc2)Sc2ccccc2)Sc2ccccc2)cc1`, the TGI in the experiment with HCT-15 colon, in the experiment on KM12 colon, in the experiment with NCI-H460 lung, with OVCAR-4 ovarian, with SN12C renal and in the experiment with UO-31 renal was > 100 µM each time.
Consider `Cn1cnc2nc(Cl)nc(NC(C)(C)C(C)(C)O)c21`, for which the TGI in the experiment with HCT-15 colon, in the experiment on KM12 colon, with NCI-H460 lung, with OVCAR-4 ovarian, with SN12C renal and in the experiment with UO-31 renal was > 100 µM each time.
As to `C=CCc1cc(OC)c2c(c1)C(O)CC(c1ccccc1)O2` (centres undefined), the TGI in the experiment on HCT-15 colon, in the experiment with KM12 colon, in the experiment with NCI-H460 lung, with OVCAR-4 ovarian, in the experiment on SN12C renal and in the experiment with UO-31 renal was > 100 µM in each case.
Turning to `CCOC(=O)C(C)(c1cn(C)c2ccccc12)c1cn(C)c2ccccc12`, the TGI in the experiment on HCT-15 colon, with KM12 colon, in the experiment with NCI-H460 lung, in the experiment on OVCAR-4 ovarian and in the experiment with UO-31 renal was > 100 µM each time.
For `Brc1cccc(C2SCc3nc4ccccc4n32)c1` (centres undefined), the TGI in the experiment on HCT-15 colon stood at 35.9 µM; with KM12 colon, 42.7 µM; in the experiment with NCI-H460 lung, 99.1 µM; with OVCAR-4 ovarian, 63.3 µM; with SN12C renal, 33.2 µM; with UO-31 renal it was 25.7 µM.
As to `CSCC1CC(c2ccc(Cl)cc2)=NO1` (centres undefined), the TGI in the experiment on HCT-15 colon, in the experiment on KM12 colon, with NCI-H460 lung, in the experiment with OVCAR-4 ovarian, in the experiment on SN12C renal and in the experiment with UO-31 renal was > 100 µM in each case.
`Cc1cc2c(C)n(Cc3ccc(Cl)cc3Cl)nc2c(C#N)c1C`: the TGI was > 100 µM with HCT-15 colon; > 100 µM in the experiment with KM12 colon; > 100 µM with NCI-H460 lung; > 100 µM in the experiment with OVCAR-4 ovarian; > 100 µM in the experiment with SN12C renal; > 95.3 µM in the experiment on UO-31 renal.
As to `c1ccc2c(C3NCCc4[nH]cnc43)cccc2c1` (centres undefined), the TGI in the experiment on HCT-15 colon, in the experiment with KM12 colon, with NCI-H460 lung, in the experiment on OVCAR-4 ovarian, in the experiment with SN12C renal and in the experiment on UO-31 renal was > 100 µM throughout.
For the compound `CCC1CN2CCc3cc(OC)c(OC)cc3C2CC1CC1c2cc(OC)c(OC)cc2CCN1C(=O)C1CCCN1C(=O)OCc1ccccc1` (centres undefined), the TGI came out at 29.9 µM in the experiment on HCT-15 colon; 30.1 µM in the experiment with KM12 colon; 30.2 µM with NCI-H460 lung; 27.4 µM with OVCAR-4 ovarian; 30.6 µM with SN12C renal; 26 µM in the experiment on UO-31 renal.
On to `CCCCCCc1cc(C(=O)Nc2cccc(C(F)(F)F)c2)nc(N)n1`, for which the TGI in the experiment with HCT-15 colon, in the experiment with KM12 colon, in the experiment with NCI-H460 lung, in the experiment on OVCAR-4 ovarian, in the experiment with SN12C renal and with UO-31 renal was > 100 µM in each case.
Consider `O=C1C(=O)N(c2ccc(Cl)c(Cl)c2)C(=O)C(=O)C1c1nc2ccccc2s1`, for which the TGI in the experiment on HCT-15 colon, in the experiment on OVCAR-4 ovarian, in the experiment with SN12C renal and in the experiment on UO-31 renal was > 100 µM throughout.
For the compound `CC(=O)OC1CCn2nnc(CO[Si](C)(C)C(C)(C)C)c21` (centres undefined), the TGI in the experiment on HCT-15 colon, with KM12 colon, in the experiment with NCI-H460 lung, in the experiment on OVCAR-4 ovarian, with SN12C renal and in the experiment on UO-31 renal was > 100 µM each time.
For `CCOC(=O)C(=O)Nc1c(CC)cccc1C(C)C`, the TGI in the experiment on HCT-15 colon, in the experiment with KM12 colon, in the experiment with NCI-H460 lung, in the experiment with OVCAR-4 ovarian, in the experiment with SN12C renal and in the experiment on UO-31 renal was > 100 µM each time.
On to `O=C1OC(CCCl)(c2ccccc2)CC1CN1CCOCC1` (centres undefined), for which the TGI with HCT-15 colon was 55.5 µM; with KM12 colon, 47.7 µM; in the experiment on NCI-H460 lung, > 100 µM; with OVCAR-4 ovarian it was > 100 µM; in the experiment with SN12C renal it was 90.7 µM; in the experiment with UO-31 renal, > 100 µM.
On to `O=C(O)C1(P(=O)(O)O)CC1`, for which the TGI in the experiment on HCT-15 colon, in the experiment on KM12 colon, in the experiment with NCI-H460 lung, in the experiment on OVCAR-4 ovarian, in the experiment on SN12C renal and in the experiment with UO-31 renal was > 100 µM each time.
On to `N#CC(C(=O)CCC(=O)Nc1cccc(Cl)c1)c1ccccc1` (centres undefined), for which the TGI in the experiment with HCT-15 colon, in the experiment with KM12 colon, in the experiment on NCI-H460 lung, with OVCAR-4 ovarian, with SN12C renal and with UO-31 renal was > 100 µM each time.
Regarding `CCOC(=O)c1oc2ccc(OC)c3c2c1CCC3`, the TGI with HCT-15 colon, with KM12 colon, with NCI-H460 lung, in the experiment with OVCAR-4 ovarian, in the experiment on SN12C renal and with UO-31 renal was > 100 µM in each case.
As to `COc1cc(C(=O)C/C(CCC(=O)Nc2ccccc2[N+](=O)[O-])=N\NC(=O)CC#N)ccc1O`, the TGI in the experiment on HCT-15 colon, with KM12 colon, in the experiment with NCI-H460 lung, in the experiment with OVCAR-4 ovarian, in the experiment with SN12C renal and with UO-31 renal was > 100 µM in each case.
For `CCOC(=O)C1Oc2ccc([N+](=O)[O-])c3c2C1(O)CCC3` (centres undefined), the TGI in the experiment on HCT-15 colon, with KM12 colon, in the experiment on NCI-H460 lung, with OVCAR-4 ovarian, in the experiment on SN12C renal and with UO-31 renal was > 100 µM each time.
As to `CCN(C(=O)N1CCN(c2cc3c(cc2F)c(=O)c(C(=O)O)cn3C2CC2)CC1)c1nc(-c2ccc(C)cc2)cs1`, the GI50 in the experiment on DU-145 prostate was 0.442 µM; in the experiment with HCT-15 colon it was 0.341 µM; with KM12 colon, 0.41 µM; with NCI-H460 lung it was 0.356 µM; in the experiment on SN12C renal, 0.365 µM; in the experiment on T-47D breast it was 2.11 µM. In addition, the GI50 in the experiment with UO-31 renal was 0.322 µM. Further, the TGI in the experiment on DU-145 prostate is 82.8 µM; in the experiment with HCT-15 colon, > 100 µM; in the experiment with KM12 colon, > 100 µM; in the experiment with NCI-H460 lung it was 11.9 µM; in the experiment with SN12C renal it was > 100 µM; in the experiment on T-47D breast it was > 100 µM. Also, the TGI in the experiment with UO-31 renal was > 100 µM.
